Data from patent US9422246B2, “Benzylidene azolidine derivative or salt thereof” (ROHTO Pharmaceutical Co., Ltd., priority 2012, dated 2016).

Experiments:
[1] = Evaluation of hydrophilicity (solubility in test solvent); assay type: physicochemical; conditions: 25° C.; test solvent 10% by weight dipropylene glycol, 10% ethanol, 80% purified water
Experimental: Test solvent: A mixed solvent containing 10% by weight of dipropylene glycol, 10% by weight of ethanol, and 80% by weight of purified water (based on 100% by weight of the total amount of dipropylene glycol, ethanol, and purified water).
Based on the difference in solubility, the hydrophilicity was evaluated as follows.
Particularly high hydrophilicity: A solubility of 1.0 or more (g/100 g test solvent)
High hydrophilicity: A solubility of 0.2 to less than 1.0 (g/100 g test solvent)
Low hydrophilicity: A solubility of 0.1 to less than 0.2 (g/100 g test solvent)
No hydrophilicity: A solubility of less than 0.1 (g/100 g test solvent) or the occurrence of suspended solids

[2] = UV absorbing properties (UV spectrum in ethanol); assay type: physicochemical; conditions: 5 ppm in ethanol, quartz cell 1 cm optical path length
Experimental: The resulting compound 1 was dissolved at a concentration of 5 ppm in ethanol as a solvent to form a sample solution. After the prepared sample solution was injected into a quartz cell (1 cm in optical path length), the UV spectrum of the sample was measured with a spectrophotometer (UV-2450 manufactured by SHIMADZU CORPORATION), in which the maximal absorption wavelength (λmax) and the absorbance at the maximal absorption wavelength were determined. When the maximal absorption wavelength falls within the ultraviolet wavelength range, the higher absorbance at the maximal absorption wavelength indicates the better UV absorbing properties.

| Structure (SMILES) | Solubility [1] | Absorbance at maximal absorption wavelength [2] | Maximal absorption wavelength (λmax) [2] |
| --- | --- | --- | --- |
| O=C(CCN1C(=O)NC(=Cc2ccc(OCCOCCO)cc2)C1=O)N(CCO)CCO [Compound 4, 5-[4-[2-(2-hydroxyethoxyl)ethoxy]benzylidene]-3-[3-[bis(2-hydroxyethyl)amino]-3-oxopropyl]hydantoin] | 1.5 g/100 g test solvent | 0.34 | 338 nm |
| COc1ccc(C=C2C(=O)N(CC(=O)OCCOCCO)C(=O)N2CC(=O)OCCOCCO)cc1 [Compound 7, 5-(4-methoxybenzylidene)-1,3-bis[2-[2-(2-hydroxyethoxy)ethoxy]-2-oxoethyl]hydantoin] | 25< g/100 g test solvent | 0.14 | 326 nm |
| O=C(COc1ccc(C=C2NC(=O)N(CC(=O)N(CCO)CCO)C2=O)cc1)N(CCO)CCO [Compound 3, 5-[4-[2-[bis(2-hydroxyethyl)amino]-2-oxoethoxy]benzylidene]-3-[2-[bis(2-hydroxyethyl)amino]-2-oxoethyl]hydantoin] | 1.2 g/100 g test solvent | 0.30 | 336 nm |
| COc1ccc(C=C2C(=O)N(CC(=O)N(CCO)CCO)C(=O)N2CC(=O)N(CCO)CCO)cc1 [Compound 6, 5-(4-methoxybenzylidene]-1,3-bis[2-[bis(2-hydroxyethyl)amino]-2-oxoethyl]hydantoin] | 25< g/100 g test solvent | 0.18 | 328 nm |
| O=C1C(=Cc2ccc(OCCOCCOCCO)cc2)N(CCOCCOCCO)C(=O)N1CCOCCOCCO [Compound 2, 5-[4-[2-[2-(2-hydroxyethoxyl)ethoxy]ethoxy]benzylidene]-1,3-bis[2-[2-(2-hydroxyethoxyl)ethoxy]ethyl]hydantoin] | 25< g/100 g test solvent | 0.12 | 325 nm |
| CCCCC(CC)COC(=O)CCN1C(=O)NC(=Cc2ccc(OC)c(OC)c2)C1=O (stereo not shown) [1′, 2-ethylhexyl dimethoxybenzylidene dioxoimidazolidine propionate, reference compound] | <0.05 g/100 g test solvent |  |  |
| O=C(COc1ccc(C=C2NC(=O)N(CC(=O)OCCOCCO)C2=O)cc1)OCCOCCO [Compound 5, 5-[4-[2-[2-(2-hydroxyethoxyl)ethoxy]-2-oxoethoxy]benzylidene]-3-[2-[2-(2-hydroxyethoxyl)ethoxy]-2-oxoethyl]hydantoin] | 0.2 g/100 g test solvent | 0.20 | 335 nm |
| O=C1NC(=Cc2ccc(OCCOCCO)cc2)C(=O)N1CCOCCO [Compound 1, 5-[4-[2-(2-hydroxyethoxyl)ethoxy]benzylidene]-3-[2-(2-hydroxyethoxyl)ethyl]hydantoin] | 2.0 g/100 g test solvent | 0.43 | 335 nm |
